Experimental findings from ChEMBL document CHEMBL1154708, “Identification of a brain penetrant PDE9A inhibitor utilizing prospective design and chemical enablement as a rapid lead optimization strategy” (J Med Chem, 2009) are described below.

The target of data set [1] is T1, High affinity cGMP-specific 3',5'-cyclic phosphodiesterase 9A (Homo sapiens, UniProt O76083). In words: Inhibition of human recombinant PDE9A expressed in Sf9 cells by SPA.
For data set [2], the target named is Dual specificity calcium/calmodulin-dependent 3',5'-cyclic nucleotide phosphodiesterase 1C (Homo sapiens, UniProt Q14123). In words: Inhibition of human recombinant PDE1C expressed in Sf9 cells by SPA.
Data set [3] in a line: Inhibition of PDE2.
The target in data set [4] is cGMP-inhibited 3',5'-cyclic phosphodiesterase 3A (Homo sapiens, UniProt Q14432). In words: Inhibition of PDE3A.
In data set [5] the target is 3',5'-cyclic-AMP phosphodiesterase 4C (Homo sapiens, UniProt Q08493). In words: Inhibition of PDE4C.
Data set [6] concerns the target cGMP-specific 3',5'-cyclic phosphodiesterase (Homo sapiens, UniProt O76074). Description: Inhibition of PDE5.
Data set [7] can be described thus: Inhibition of PDE6.
In data set [8] the target is 3',5'-cyclic-AMP phosphodiesterase 7B (Homo sapiens, UniProt Q9NP56). In words: Inhibition of PDE7B.
The target of data set [9] is High affinity cAMP-specific and IBMX-insensitive 3',5'-cyclic phosphodiesterase 8B (Homo sapiens, UniProt O95263). In words: Inhibition of PDE8B.
Data set [10] has as its target cAMP and cAMP-inhibited cGMP 3',5'-cyclic phosphodiesterase 10A (Homo sapiens, UniProt Q9Y233). Description: Inhibition of PDE10.
For data set [11], the target named is Dual 3',5'-cyclic-AMP and -GMP phosphodiesterase 11A (Homo sapiens, UniProt Q9HCR9). In words: Inhibition of PDE11.
Data set [12] in a line: Ratio of drug level in brain to plasma of rat. Type of data set: ADME, cell-free. Particulars: brain and plasma.
Data set [13] has as its system Mus musculus. Description: Increase in cGMP level in sc dosed CD1 mouse striatum after 30 mins. Type of data set: functional, organism-based.
Data set [14] deals with Mus musculus. In words: Increase in cGMP level in CD1 mouse striatum at 3.2 mg/kg, sc after 30 mins. Type of data set: functional. Particulars: route subcutaneous.
The subject of data set [15] is Mus musculus. Description: Increase in […] level in CD1 mouse striatum at 10 mg/kg, sc after 30 mins. Type of data set: functional. Particulars: route subcutaneous.
Data set [16] relates to Mus musculus. In words: Increase in […] level in CD1 mouse striatum at 0.32 mg/kg, sc after 30 mins. Type of data set: functional. To be noted: route subcutaneous.
Data set [17] relates to Mus musculus. Description: Increase in […] level in CD1 mouse striatum at 1 mg/kg, sc after 30 mins. Type of data set: functional. Particulars: route subcutaneous.
For data set [18], the target named is T1, High affinity cGMP-specific 3',5'-cyclic phosphodiesterase 9A. Description: Binding affinity to PDE9A.

Sequence of Dual specificity calcium/calmodulin-dependent 3',5'-cyclic nucleotide phosphodiesterase 1C (Q14123 whole entry): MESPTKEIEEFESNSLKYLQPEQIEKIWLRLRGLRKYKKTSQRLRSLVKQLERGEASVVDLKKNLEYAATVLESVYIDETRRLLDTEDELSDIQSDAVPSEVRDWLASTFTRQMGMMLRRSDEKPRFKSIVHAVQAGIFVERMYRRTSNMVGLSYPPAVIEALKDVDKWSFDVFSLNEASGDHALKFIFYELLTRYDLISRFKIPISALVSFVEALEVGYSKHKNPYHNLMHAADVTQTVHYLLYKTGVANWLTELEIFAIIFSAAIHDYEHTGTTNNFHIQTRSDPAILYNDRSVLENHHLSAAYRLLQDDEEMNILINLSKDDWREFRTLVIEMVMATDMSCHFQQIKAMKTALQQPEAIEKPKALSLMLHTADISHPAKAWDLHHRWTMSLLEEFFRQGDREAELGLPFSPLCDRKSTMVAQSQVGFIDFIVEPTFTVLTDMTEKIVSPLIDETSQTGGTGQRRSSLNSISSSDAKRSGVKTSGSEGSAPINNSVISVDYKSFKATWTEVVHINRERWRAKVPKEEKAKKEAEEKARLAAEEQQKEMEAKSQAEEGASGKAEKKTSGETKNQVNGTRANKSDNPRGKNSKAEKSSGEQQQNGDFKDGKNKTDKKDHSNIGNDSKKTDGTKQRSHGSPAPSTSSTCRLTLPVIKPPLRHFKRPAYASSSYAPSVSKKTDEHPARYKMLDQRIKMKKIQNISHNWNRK
T1 sequence (O76083 whole entry): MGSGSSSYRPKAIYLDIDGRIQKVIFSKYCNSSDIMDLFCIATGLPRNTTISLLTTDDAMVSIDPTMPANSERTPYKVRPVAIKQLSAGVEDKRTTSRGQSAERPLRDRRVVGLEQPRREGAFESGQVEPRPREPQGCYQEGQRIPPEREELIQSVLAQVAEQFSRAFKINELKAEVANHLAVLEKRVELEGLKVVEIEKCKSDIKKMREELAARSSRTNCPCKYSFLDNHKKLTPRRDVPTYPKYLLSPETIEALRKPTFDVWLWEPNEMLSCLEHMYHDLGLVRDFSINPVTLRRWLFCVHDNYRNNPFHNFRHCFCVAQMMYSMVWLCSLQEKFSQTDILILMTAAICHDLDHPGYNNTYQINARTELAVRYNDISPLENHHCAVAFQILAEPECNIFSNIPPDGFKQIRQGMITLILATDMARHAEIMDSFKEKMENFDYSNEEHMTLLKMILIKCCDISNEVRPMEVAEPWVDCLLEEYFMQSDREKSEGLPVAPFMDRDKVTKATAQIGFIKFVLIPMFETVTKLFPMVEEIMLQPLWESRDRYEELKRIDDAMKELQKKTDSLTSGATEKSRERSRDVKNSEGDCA
Sequence of cGMP-inhibited 3',5'-cyclic phosphodiesterase 3A (Q14432 whole entry): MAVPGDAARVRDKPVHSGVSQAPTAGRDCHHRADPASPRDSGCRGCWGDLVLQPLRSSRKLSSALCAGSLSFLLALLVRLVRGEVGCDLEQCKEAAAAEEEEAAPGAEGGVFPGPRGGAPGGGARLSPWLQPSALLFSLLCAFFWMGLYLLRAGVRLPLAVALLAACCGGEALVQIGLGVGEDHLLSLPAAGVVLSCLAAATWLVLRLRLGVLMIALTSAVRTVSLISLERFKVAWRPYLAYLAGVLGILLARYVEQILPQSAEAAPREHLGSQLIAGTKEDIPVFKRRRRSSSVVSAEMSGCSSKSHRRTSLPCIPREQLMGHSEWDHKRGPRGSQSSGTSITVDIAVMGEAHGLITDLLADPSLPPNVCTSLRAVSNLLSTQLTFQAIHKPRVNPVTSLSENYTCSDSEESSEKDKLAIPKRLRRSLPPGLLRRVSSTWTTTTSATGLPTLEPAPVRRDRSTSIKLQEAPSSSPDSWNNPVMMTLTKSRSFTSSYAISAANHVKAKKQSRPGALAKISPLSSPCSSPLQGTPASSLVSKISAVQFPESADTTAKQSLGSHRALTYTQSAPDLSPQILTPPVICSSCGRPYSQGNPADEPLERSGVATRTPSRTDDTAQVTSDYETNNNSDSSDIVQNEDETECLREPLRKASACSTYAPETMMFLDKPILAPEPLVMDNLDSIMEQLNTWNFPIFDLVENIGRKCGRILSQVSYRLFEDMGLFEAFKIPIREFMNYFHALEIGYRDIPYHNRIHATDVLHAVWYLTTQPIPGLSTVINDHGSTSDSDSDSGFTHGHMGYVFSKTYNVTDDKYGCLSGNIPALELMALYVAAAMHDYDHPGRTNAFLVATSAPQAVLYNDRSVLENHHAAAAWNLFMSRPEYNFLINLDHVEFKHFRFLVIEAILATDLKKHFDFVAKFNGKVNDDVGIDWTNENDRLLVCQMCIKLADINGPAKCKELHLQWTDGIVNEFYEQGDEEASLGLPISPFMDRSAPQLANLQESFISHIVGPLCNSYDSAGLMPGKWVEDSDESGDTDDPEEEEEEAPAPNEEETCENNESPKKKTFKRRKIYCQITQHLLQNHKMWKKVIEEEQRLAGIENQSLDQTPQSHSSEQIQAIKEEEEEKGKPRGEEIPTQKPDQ
Sequence of High affinity cAMP-specific and IBMX-insensitive 3',5'-cyclic phosphodiesterase 8B (O95263 whole entry): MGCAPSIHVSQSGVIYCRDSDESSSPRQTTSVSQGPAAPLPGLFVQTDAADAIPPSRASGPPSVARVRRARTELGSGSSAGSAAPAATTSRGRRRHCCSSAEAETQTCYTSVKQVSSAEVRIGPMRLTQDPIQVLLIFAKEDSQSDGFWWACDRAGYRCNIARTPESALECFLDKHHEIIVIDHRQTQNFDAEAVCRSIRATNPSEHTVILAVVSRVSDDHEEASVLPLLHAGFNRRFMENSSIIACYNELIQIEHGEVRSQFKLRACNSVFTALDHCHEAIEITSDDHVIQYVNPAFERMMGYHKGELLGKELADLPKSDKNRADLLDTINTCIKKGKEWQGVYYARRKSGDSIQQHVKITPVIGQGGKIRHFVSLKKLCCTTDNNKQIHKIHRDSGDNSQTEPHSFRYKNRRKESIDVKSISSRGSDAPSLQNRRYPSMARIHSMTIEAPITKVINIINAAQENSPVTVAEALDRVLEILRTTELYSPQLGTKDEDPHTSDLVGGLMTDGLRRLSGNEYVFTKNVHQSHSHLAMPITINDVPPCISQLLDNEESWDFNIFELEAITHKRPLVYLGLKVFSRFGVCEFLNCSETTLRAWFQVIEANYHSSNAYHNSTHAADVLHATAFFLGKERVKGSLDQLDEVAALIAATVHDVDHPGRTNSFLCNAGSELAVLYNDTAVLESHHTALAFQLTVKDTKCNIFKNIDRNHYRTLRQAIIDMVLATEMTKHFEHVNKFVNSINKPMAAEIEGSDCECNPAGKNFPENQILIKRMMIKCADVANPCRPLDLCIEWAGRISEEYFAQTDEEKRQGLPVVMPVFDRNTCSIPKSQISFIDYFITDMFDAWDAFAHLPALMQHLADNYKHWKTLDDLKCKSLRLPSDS
Sequence of 3',5'-cyclic-AMP phosphodiesterase 7B (Q9NP56 whole entry): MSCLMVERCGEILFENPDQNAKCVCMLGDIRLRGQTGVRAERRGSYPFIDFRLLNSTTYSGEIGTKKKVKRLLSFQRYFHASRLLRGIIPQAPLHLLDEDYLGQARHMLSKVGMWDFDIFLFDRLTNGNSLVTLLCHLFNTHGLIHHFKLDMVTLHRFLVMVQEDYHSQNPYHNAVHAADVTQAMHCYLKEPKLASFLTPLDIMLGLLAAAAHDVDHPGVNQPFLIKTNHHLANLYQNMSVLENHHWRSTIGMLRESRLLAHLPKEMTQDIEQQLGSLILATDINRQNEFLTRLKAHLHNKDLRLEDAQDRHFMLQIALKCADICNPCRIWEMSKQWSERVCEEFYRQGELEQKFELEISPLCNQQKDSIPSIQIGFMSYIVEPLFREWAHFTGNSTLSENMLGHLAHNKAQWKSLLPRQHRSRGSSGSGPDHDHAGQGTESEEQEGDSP
Sequence of Dual 3',5'-cyclic-AMP and -GMP phosphodiesterase 11A (Q9HCR9 whole entry): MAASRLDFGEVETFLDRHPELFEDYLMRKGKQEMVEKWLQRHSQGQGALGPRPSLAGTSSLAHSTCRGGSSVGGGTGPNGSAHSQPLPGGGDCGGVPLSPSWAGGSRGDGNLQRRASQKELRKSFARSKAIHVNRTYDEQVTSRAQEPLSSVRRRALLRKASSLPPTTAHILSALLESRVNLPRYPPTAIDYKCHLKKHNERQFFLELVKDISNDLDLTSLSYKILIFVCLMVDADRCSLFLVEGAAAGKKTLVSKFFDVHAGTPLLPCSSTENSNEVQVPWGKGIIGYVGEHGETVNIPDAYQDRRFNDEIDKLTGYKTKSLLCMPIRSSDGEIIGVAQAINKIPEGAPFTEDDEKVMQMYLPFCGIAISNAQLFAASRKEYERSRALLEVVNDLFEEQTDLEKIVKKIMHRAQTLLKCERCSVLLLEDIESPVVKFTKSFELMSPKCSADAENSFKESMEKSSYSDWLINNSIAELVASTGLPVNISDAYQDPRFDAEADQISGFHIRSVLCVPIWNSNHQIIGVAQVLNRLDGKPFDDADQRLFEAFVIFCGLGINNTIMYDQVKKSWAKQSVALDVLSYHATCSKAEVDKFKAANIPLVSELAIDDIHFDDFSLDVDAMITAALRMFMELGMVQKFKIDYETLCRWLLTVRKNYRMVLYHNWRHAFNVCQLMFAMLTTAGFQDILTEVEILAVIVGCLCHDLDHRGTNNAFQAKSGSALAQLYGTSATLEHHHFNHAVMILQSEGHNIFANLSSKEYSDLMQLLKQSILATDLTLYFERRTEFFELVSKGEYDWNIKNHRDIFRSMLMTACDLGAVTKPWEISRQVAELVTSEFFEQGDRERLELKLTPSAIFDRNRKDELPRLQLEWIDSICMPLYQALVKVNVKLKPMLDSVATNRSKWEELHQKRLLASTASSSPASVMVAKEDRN

On to `C[C@@H]1CN(Cc2ccc(C(F)(F)F)nc2)C[C@H]1c1nc2c(cnn2C2CCCC2)c(=O)[nH]1`, for which the IC50 came out at 16 nM in data set [1] (read-out: IC50) and 190 nM in [2].
Regarding `C[C@@H]1CN(Cc2ccc3nccnc3c2)C[C@H]1c1nc2c(cnn2C2CCCC2)c(=O)[nH]1`, the IC50 in data set [1] (read-out: IC50) was 1.8 nM; in data set [2], 50 nM; in [3], over 1000 nM; in data set [4], over 1000 nM; in [5], over 1000 nM; in [6], 349 nM. Also, the IC50 in [7] was 127 nM; in data set [8] it was over 1000 nM; in data set [9] it was over 1000 nM; in [10] it was over 1000 nM; in data set [11], over 1000 nM. Further, in data set [12], the Kp amounted to 1.4. Moreover, the Activity result with Mus musculus [13] was “Dose-dependent effect”; in the data set on Mus musculus [14] it was 145%; in the data set on Mus musculus [15], 215%; in the data set with Mus musculus [16], 110%; with Mus musculus [17], 119%.
In turn, `Cn1cc(-c2ccncc2)c(-c2ccc(OCc3ccc4ccccc4n3)cc2)n1` displayed an Activity in data set [18] of 2.1 nM.
Consider `C[C@H]1CN(Cc2ccc3nccnc3c2)C[C@@H]1c1nc2c(cnn2C2CCCC2)c(=O)[nH]1` (relative stereo), for which the IC50 in data set [1] (read-out: IC50) turned out to be 1.9 nM; in data set [2] it was 73 nM.
The matching figures for `C[C@@H]1CN(Cc2cn3ccccc3n2)C[C@H]1c1nc2c(cnn2C2CCCC2)c(=O)[nH]1` (relative stereo): 12 nM and 220 nM.
`CC(C)n1ncc2c(=O)[nH]c([C@@H]3CN(Cc4ccccc4)C[C@H]3C)nc21` (relative stereo): the IC50 in [2] came out at 2100 nM.
On to `C[C@@H]1CN(Cc2ccccc2)C[C@H]1c1nc2c(cnn2C2CCCC2)c(=O)[nH]1` (relative stereo), for which the IC50 in [1] (read-out: IC50) stood at 63 nM; in [2], 970 nM.
For `Cc1cccc(CN2C[C@@H](C)[C@H](c3nc4c(cnn4C4CCCC4)c(=O)[nH]3)C2)c1` (relative stereo), the IC50 in data set [1] (read-out: IC50) was 40 nM; in data set [1] (read-out: pIC50 (converted)), 38 nM; in data set [2] it was 563 nM.
For `COc1ccc(CN2C[C@@H](C)[C@H](c3nc4c(cnn4C4CCCC4)c(=O)[nH]3)C2)cn1` (relative stereo), the results for the IC50 in data set [1] (read-out: IC50) and in [2] were 29 nM and 270 nM, respectively.
The matching figures for `Cc1cnc(CN2C[C@@H](C)[C@H](c3nc4c(cnn4C4CCCC4)c(=O)[nH]3)C2)cn1` (relative stereo): 15 nM and 210 nM.
The matching figures for `Cc1cc(CN2C[C@@H](C)[C@H](c3nc4c(cnn4C4CCCC4)c(=O)[nH]3)C2)n(C)n1` (relative stereo): 11 nM and 200 nM.
On to `CC(C)Cn1ncc2c(=O)[nH]c([C@@H]3CN(Cc4ccccc4)C[C@H]3C)nc21` (relative stereo), for which the IC50 is 150 nM in [1] (read-out: IC50) and 1500 nM in [2].
The matching figures for `Cc1ncc(CN2C[C@@H](C)[C@H](c3nc4c(cnn4C4CCCC4)c(=O)[nH]3)C2)cn1` (relative stereo): 11 nM and 400 nM.
The matching figures for `C[C@@H]1CN(Cc2ccccn2)C[C@H]1c1nc2c(cnn2C2CCCC2)c(=O)[nH]1` (relative stereo): 200 nM and 1300 nM.
In the case of `Cc1cc(CN2C[C@@H](C)[C@H](c3nc4c(cnn4C4CCCC4)c(=O)[nH]3)C2)no1` (relative stereo), the IC50 is 11 nM in [1] (read-out: IC50) and 110 nM in [2].
